Assay: Absorption/emission spectra and photobleaching of chromophores and chromophore combinations
Assay type: physicochemical
Protocol: The photodynamic properties of (i) Fluorescein sodium salt at about 0.09 mg/mL, (ii) Eosin Y at about 0.305 mg/mL, and (iii) a mixture of Fluorescein sodium salt at about 0.09 mg/mL and Eosin Y at about 0.305 mg/mL, all in a gel (12% carbamide) were evaluated. A flexstation 384 II spectrophotometer was used to measure emitted fluorescence with the following parameters: mode fluorescence, excitation 460 nm, emission spectra 465-750 nm. The absorbance was read using a synergy HT microplate reader: mode absorbance; spectra between 300-650 nm. The absorption and emission spectra are shown in FIGS. 8A and 8B which indicate an energy transfer between the chromophores in the combination. It is to be reasonably inferred that this energy transfer can also occur in biophotonic compositions of the present disclosure. […]
The photodynamic properties of (i) Fluorescein sodium salt at 0.18 mg/mL final concentration, (ii) Eosin Y at about 0.305 mg/mL, and (iii) a mixture of Fluorescein sodium salt at about 0.18 mg/mL and Eosin Y at about 0.305 mg/mL in an aqueous solution were evaluated. A flexstation 384 II spectrophotometer was used to measure emitted fluorescence with the following parameters: mode fluorescence, excitation 460 nm, emission spectra 465-750 nm. The absorbance was read using a synergy HT microplate reader: mode absorbance; spectra between 300-650 nm. […]

With `O=C([O-])c1ccccc1-c1c2cc(Br)c(=O)c(Br)c-2oc2c(Br)c([O-])c(Br)cc12.[Na+].[Na+]` [Eosin Y] the Photobleaching during illumination (with Fluorescein in aqueous solution, Example 4) was “Photobleaching of Eosin Y was observed” and the Photobleaching during illumination (with Fluorescein in gel (12% carbamide), Example 3) was “Photobleaching of Eosin Y was observed”.

From US20150360047A1, “Cosmetic Biophotonic Compositions” (KLOX TECHNOLOGIES INC., priority 2012, published 2015)
